For series [1], the system named is MDR1-MDCK cells. The experiment in a line: MDR1-MDCK effective efflux assay (Transwell, 10 μM, 1 hour), MDR1-MDCK cells. The series is classed as in vitro ADME. The following applies: MDCK-MDR1. On the procedure:
(§1) The MDR1-MDCK effective efflux assay was performed as described in the BioFocus Standard Operating Procedure, ADME-SOP-56. Both wild-type (WT) and MDR1-MDCK cells (Solvo Biotechnology) were seeded onto 24-well Transwell plates at 2.35×10^5 cells per well and used in confluent monolayers after a 3 day culture at 37° C. under 5% CO2. For both cell types, test and control compounds (propranolol, vinblastine) were added (10 μM, 0.1% DMSO final, n=2) to donor compartments of the Transwell plate assembly in assay buffer (Hanks balanced salt solution supplemented with 25 mM HEPES, adjusted to pH 7.4) for both apical to basolateral (A>B) and basolateral to apical (B>A) measurements. Incubations were performed at 37° C., with samples removed from both donor and acceptor chambers at T=0 and 1 hour and compound analysed by mass spectrometry (LC-MS/MS) including an analytical internal standard.
(§2) Where V is the volume of each Transwell compartment (apical 125 basolateral 600 and concentrations are the relative MS responses for compound (normalized to internal standard) in the donor chamber before incubation and acceptor chamber at the end of the incubation. Area=area of cells exposed for drug transfer (0.33 cm2).
(§3) Efflux ratios (Papp B>A/Papp A>B) were calculated for each compound from the mean Papp values in each direction for both wild-type and MDR1-MDCK cells.
(§4) In order to confirm the involvement of MDR1 in any efflux seen, an “effective efflux ratio” (EER) was calculated by comparing compound efflux ratios (ER) in the two cell types, i.e. EER=ER(MDR1−MDCK)/ER(wild-type MDCK)
(§5) This ratio illustrates the effect of the over-expressed MDR1 normalised for the background movement of compound through the wild-type cells.
(§6) Lucifer Yellow (LY) was added to the apical buffer in all wells to assess viability of the cell layer. Compound recovery from the wells was determined from MS responses (normalized to internal standard) in donor and acceptor chambers at the end of incubation compared to response in the donor chamber pre-incubation.

Series [2] has as its system MDR1 (P-glycoprotein). Described as above. Type of series: in vitro ADME. The following applies: dog, MDCK-MDR1, pH 7.4, Papp AB MDR1. How it is done: as §1, §2, §3, §4, §5, §6
For series [3], the target named is human Oxytocin Receptor (hOTR) (Homo sapiens (Human), UniProt P30559). The series can be described thus: Oxytocin receptor antagonist assay (oxytocin-evoked calcium, FLIPR, CHEM-1-hOTR cells). The conditions noted are these: read-out: OT IC50. The series is classed as cell-based. An outline of the steps: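 Antagonist mode in CHEM-1-hOTR cells loaded with Calcium-6 dye; compounds (10-point, 1:3 series) preincubated 15 min at 37 °C, then oxytocin added at daily-determined EC80 in HBSS/20 mM HEPES with 0.1% BSA. Fluorescence (ex 470-495, em 515-575 nm) followed 3 min on FLIPR^TETRA; concentration-dependent reduction of oxytocin response measured.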

In series [4] the target is human Arginine Vasopressin Receptor 1a (AVPR1a) (Homo sapiens (Human), UniProt P37288). The experiment in a line: Vasopressin V1A receptor antagonist assay (AVP-evoked calcium, FLIPR, CHO-AVPR1a cells). The following applies: read-out: V1a IC50. Type of series: cell-based. An outline of the steps:
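CHO cells expressing human AVPR1a, Calcium-6 dye loaded 60-90 min, preincubated with compound 15 min at 37° C., then challenged with AVP at its daily-determined EC80. FLIPR fluorescence; 10-point 1:3 series from 3 μM, duplicates.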

Series [5] is described as follows: MDR1-MDCK effective efflux assay (Transwell, 10 μM, 1 hour), wild-type MDCK cells. The series is classed as in vitro ADME. The conditions noted are these: dog, MDCK, pH 7.4, Papp AB WT. On the procedure:
as §1, §2, §3, §4, §5, §6

The test system of series [6] is wild-type (WT) MDCK cells. Described as above. Type of series: in vitro ADME. The following applies: MDCK. How it is done: as §1, §2, §3, §4, §5, §6

Structures are written as SMILES. Some results are limits rather than exact numbers.

Usually Papp A→B stands for the apparent permeability from the apical to the basolateral side of a cell layer. A high value points to ready permeation. As usually defined, the IC50 is the midpoint of a concentration-inhibition curve.

Sequence of human Oxytocin Receptor (hOTR) (P30559 whole entry): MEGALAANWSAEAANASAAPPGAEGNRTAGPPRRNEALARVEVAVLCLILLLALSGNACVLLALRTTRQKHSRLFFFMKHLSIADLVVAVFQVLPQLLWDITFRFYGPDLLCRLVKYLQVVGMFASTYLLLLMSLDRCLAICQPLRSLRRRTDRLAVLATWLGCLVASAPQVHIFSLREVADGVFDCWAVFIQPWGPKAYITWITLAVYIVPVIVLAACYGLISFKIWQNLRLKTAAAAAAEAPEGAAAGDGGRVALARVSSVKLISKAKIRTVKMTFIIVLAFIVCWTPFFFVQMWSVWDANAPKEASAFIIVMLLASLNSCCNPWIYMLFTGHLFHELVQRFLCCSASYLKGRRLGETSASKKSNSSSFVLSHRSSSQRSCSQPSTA
Sequence of human Arginine Vasopressin Receptor 1a (AVPR1a) (P37288 whole entry): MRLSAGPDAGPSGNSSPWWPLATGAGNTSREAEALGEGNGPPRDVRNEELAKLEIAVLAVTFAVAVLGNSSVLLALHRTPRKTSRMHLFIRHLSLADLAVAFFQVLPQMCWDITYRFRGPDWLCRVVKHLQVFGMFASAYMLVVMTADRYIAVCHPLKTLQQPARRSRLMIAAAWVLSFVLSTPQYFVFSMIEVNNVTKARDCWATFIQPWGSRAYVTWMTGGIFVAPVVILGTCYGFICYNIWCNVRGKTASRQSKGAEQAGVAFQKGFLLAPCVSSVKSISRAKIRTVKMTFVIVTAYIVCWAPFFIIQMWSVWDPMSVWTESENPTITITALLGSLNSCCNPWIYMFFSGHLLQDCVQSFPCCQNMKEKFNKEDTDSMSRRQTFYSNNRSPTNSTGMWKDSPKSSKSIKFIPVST

With `CCC(=O)N1Cc2cc(Cl)ccc2-n2c(nnc2C2CC3(C2)CN(C(=O)C2CC2)C3)C1` [compound 16], the “MDR1 EER” value in series [1] was “++”. For the same compound, the “MDR1 ER” value in series [1] is on record as “+”. Moreover, the apparent permeability from apical to basolateral (Papp A→B) at 1 h, 10 μM in series [2] and in series [5] was < 7 ×10⁻⁶ cm/s throughout. Also, the concentration for half-maximal inhibition (IC50) in series [3] is > 1000 nM; in series [4] it was < 100 nM. Moreover, the “WT ER” value in series [6] is reported as “+”.
Regarding `O=C(C1CC1)N1Cc2cc(Cl)ccc2-n2c(nnc2C2CC3(C2)CN(c2ccccn2)C3)C1` [compound 65], the “MDR1 EER” value in series [1] is given as “+”. For the same compound, the “MDR1 ER” value in series [1] is recorded as “+”. Further, the apical-to-basolateral permeability (Papp A→B) at 1 h, 10 μM was < 7 ×10⁻⁶ cm/s in series [2] and > 20 ×10⁻⁶ cm/s in series [5]. For the same compound, the IC50 is > 1000 nM in series [3] and < 100 nM in series [4]. The “WT ER” value in series [6] was “++++”.
Take `CC(=O)N1Cc2cc(Cl)ccc2-n2c(nnc2C2CC3(C2)CN(c2ccccn2)C3)C1` [compound 73]: the “MDR1 EER” value in series [1] is given as “+”. For the same compound, in series [1], the “MDR1 ER” value is given as “+”. The Papp A→B at 1 h, 10 μM is < 7 ×10⁻⁶ cm/s in series [2] and 10 to 20 ×10⁻⁶ cm/s in series [5]. Moreover, the results for the concentration for half-maximal inhibition (IC50) in series [3] and in series [4] were > 1000 nM and < 100 nM, respectively. Also, in series [6], the “WT ER” value is “+”.
In the case of `O=C(C1CC1)N1Cc2cc(Cl)ccc2-n2c(nnc2C2CC3(C2)CN(c2ccc(F)cn2)C3)C1` [compound 74], the “MDR1 EER” value in series [1] was “+”. In series [1], the “MDR1 ER” value is reported as “+”. In addition, the apical-to-basolateral permeability (Papp A→B) at 1 h, 10 μM in series [2] was < 7 ×10⁻⁶ cm/s; in series [5] it was > 20 ×10⁻⁶ cm/s. The IC50 in series [3] was > 1000 nM; in series [4], < 100 nM. Further, the “WT ER” value in series [6] was “+++”.
With `O=C(C1COC1)N1Cc2cc(Cl)ccc2-n2c(nnc2C2CC3(C2)CN(c2ccc(F)cn2)C3)C1` [compound 160], in series [1], the “MDR1 EER” value is “+” and the “MDR1 ER” value is on record as “+”. Also, the Papp A→B at 1 h, 10 μM in series [2] is < 7 ×10⁻⁶ cm/s. Besides, the IC50 in series [4] was < 100 nM. Further, the apical-to-basolateral permeability (Papp A→B) at 1 h, 10 μM in series [5] was < 7 ×10⁻⁶ cm/s. Further, in series [6], the “WT ER” value was “+”.
In the case of `COC(=O)N1Cc2cc(Cl)ccc2-n2c(nnc2C2CC3(C2)CN(C(=O)C2CC2)C3)C1` [compound 162], in series [1], the “MDR1 EER” value is given as “+” and the “MDR1 ER” value was “+”. Further, the Papp A→B at 1 h, 10 μM in series [2] is < 7 ×10⁻⁶ cm/s. In addition, the IC50 in series [4] was < 100 nM. Also, the apical-to-basolateral permeability (Papp A→B) at 1 h, 10 μM in series [5] is < 7 ×10⁻⁶ cm/s. Besides, the “WT ER” value in series [6] is reported as “+”.
For `CC(C)OC(=O)N1Cc2cc(Cl)ccc2-n2c(C3CC4(C3)CN(c3ccc(F)cn3)C4)nnc2C1C` (stereo not drawn) [compound 163], the “MDR1 EER” value in series [1] is “+++”. In series [1], the “MDR1 ER” value is on record as “+++”. The apical-to-basolateral permeability (Papp A→B) at 1 h, 10 μM in series [2] and in series [5] was > 20 ×10⁻⁶ cm/s in each case. In series [4], the IC50 was < 100 nM. Further, in series [6], the “WT ER” value is on record as “++++”.
In the case of `CC1c2nnc(C3CC4(C3)CN(c3ccc(F)cn3)C4)n2-c2ccc(Cl)cc2CN1C(=O)C(F)F` (stereo not drawn) [compound 176], the “MDR1 EER” value in series [1] is given as “+”. Further, the “MDR1 ER” value in series [1] is listed as “+”. For the same compound, the Papp A→B at 1 h, 10 μM in series [2] was 7 to 10 ×10⁻⁶ cm/s; in series [5], > 20 ×10⁻⁶ cm/s. Besides, the IC50 in series [4] was < 100 nM. Further, in series [6], the “WT ER” value was “++++”.
In the case of `CC1c2nnc(C3CC4(C3)CN(c3ccc(F)cn3)C4)n2-c2ccc(Cl)cc2CN1C` (stereo not drawn) [compound 179], in series [1], the “MDR1 EER” value is on record as “++” and the “MDR1 ER” value is listed as “+”. Besides, the apical-to-basolateral permeability (Papp A→B) at 1 h, 10 μM in series [2] was > 20 ×10⁻⁶ cm/s. Besides, in series [4], the IC50 lay within 100 to 500 nM. Moreover, in series [5], the apical-to-basolateral permeability (Papp A→B) at 1 h, 10 μM is > 20 ×10⁻⁶ cm/s. Further, in series [6], the “WT ER” value is given as “+++”.
For the compound `CC(C)OC(=O)N1Cc2cc(Cl)ccc2-n2c(C3CC4(C3)CN(c3ccncn3)C4)nnc2C1C` (stereo not drawn) [compound 187], the “MDR1 ER” value in series [1] is on record as “++”. The apical-to-basolateral permeability (Papp A→B) at 1 h, 10 μM in series [2] and in series [5] was > 20 ×10⁻⁶ cm/s throughout. Further, the concentration for half-maximal inhibition (IC50) in series [4] is 100 to 500 nM. In addition, the “WT ER” value in series [6] is on record as “++++”.
As for `CC1c2nnc(C3CC4(C3)CN(c3ncc(F)cn3)C4)n2-c2ccc(Cl)cc2CN1C(=O)OC1CC1` (stereo not drawn) [compound 192], in series [1], the “MDR1 EER” value was “+++” and the “MDR1 ER” value is given as “+++”. The apical-to-basolateral permeability (Papp A→B) at 1 h, 10 μM in series [2] is > 20 ×10⁻⁶ cm/s. For the same compound, the IC50 in series [4] was < 100 nM. In addition, the apparent permeability from apical to basolateral (Papp A→B) at 1 h, 10 μM in series [5] is > 20 ×10⁻⁶ cm/s. Also, the “WT ER” value in series [6] is given as “+++”.
